Conditions: in water

solubility (mole fraction) (278.15 K)	solubility (mole fraction) (283.15 K)	solubility (mole fraction) (288.15 K)	solubility (mole fraction) (293.15 K)	solubility (mole fraction) (298.15 K)	solubility (mole fraction) (303.15 K)	solubility (mole fraction) (308.15 K)	solubility (mole fraction) (313.15 K)	solubility (mole fraction) (318.65 K)	solubility (mole fraction) (323.15 K)	solubility (mole fraction) (328.15 K)	solubility (mole fraction) (333.15 K)	solubility (mole fraction) (338.15 K)	Structure (SMILES)
0.112	0.121	0.132	0.145	0.158	0.168	0.181	0.198	0.209	0.231	0.248	0.269	0.294	O=C(O)CC(O)C(=O)O (stereo unspecified)
0.0673	0.0779	0.0869	0.0969	0.111	0.124	0.142	0.154	0.174	0.184	0.199	0.218	0.232	O=C(O)/C=C\C(=O)O

— BigSolDB 2.1
